Measurements taken from BindingDB's records for doi:10.1016/j.bmc.2005.09.050 (Lund University, 2006).

Tests used:
Experiment in all cases: Fluorescence Polarization Assay
Galectin-1 = Galectin-1 (Homo sapiens, UniProt P09382); details: pH 7.2; 24 °C
Method: (§1) In fluorescence polarization measurements, a fluorescent probe was excited with plane-polarized light and the degree of polarization remaining in the emitted light is measured. When the probe is bound to protein, it rotates slower than when free, and the remaining fluorescence polarization is higher. The fluorescent anisotropy value for a probe-protein mixture is the average of the value for bound and free probe. For the direct binding asaay, the data (anisotropy, A in mA vs galectin concentration, [G] in uM) were fitted to a simplified formula to obtain Kd.

Galectin-3 = Galectin-3 (Homo sapiens, UniProt P17931); details: pH 7.2; 24 °C
Sequence of Galectin-3 (P17931 whole entry): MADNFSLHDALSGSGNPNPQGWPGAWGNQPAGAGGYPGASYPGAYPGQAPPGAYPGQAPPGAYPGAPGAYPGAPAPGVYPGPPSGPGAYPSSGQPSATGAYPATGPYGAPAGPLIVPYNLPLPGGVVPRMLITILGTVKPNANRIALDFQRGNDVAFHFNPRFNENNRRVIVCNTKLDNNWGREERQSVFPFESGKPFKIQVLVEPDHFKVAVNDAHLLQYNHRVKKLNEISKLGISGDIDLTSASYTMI
Method: as §1

Galectin-9 = Galectin-9 (Homo sapiens, UniProt O00182)
Sequence of Galectin-9 (O00182 whole entry): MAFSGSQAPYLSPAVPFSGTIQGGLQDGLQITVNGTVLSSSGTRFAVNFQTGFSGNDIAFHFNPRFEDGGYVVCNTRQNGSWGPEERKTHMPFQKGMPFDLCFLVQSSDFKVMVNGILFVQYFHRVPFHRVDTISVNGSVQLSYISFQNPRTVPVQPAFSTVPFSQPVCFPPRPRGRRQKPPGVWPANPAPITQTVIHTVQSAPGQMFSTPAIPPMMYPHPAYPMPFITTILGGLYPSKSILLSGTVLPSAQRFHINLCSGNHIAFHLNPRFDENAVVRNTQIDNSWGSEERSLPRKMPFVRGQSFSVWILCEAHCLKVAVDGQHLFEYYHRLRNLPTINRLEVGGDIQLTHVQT
Method: as §1

Galectin-7 = Galectin-7 (Homo sapiens, UniProt P47929)
Sequence of Galectin-7 (P47929 whole entry): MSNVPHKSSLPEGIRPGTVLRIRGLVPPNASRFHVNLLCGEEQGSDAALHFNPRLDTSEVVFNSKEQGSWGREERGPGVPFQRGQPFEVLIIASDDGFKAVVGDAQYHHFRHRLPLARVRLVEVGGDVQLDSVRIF
Method: as §1

Galectin-8 = biological target: T1, Galectin-8 (Homo sapiens, UniProt O00214)
T1 sequence (O00214 whole entry): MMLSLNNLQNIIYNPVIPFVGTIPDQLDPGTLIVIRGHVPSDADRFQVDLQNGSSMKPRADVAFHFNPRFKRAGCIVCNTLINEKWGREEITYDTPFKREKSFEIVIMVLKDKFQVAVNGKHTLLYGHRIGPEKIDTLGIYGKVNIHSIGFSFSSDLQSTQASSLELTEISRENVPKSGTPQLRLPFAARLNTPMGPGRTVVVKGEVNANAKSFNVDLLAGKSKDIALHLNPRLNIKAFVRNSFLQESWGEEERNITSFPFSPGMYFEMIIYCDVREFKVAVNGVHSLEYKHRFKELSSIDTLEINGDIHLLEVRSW
Method: as §1

Sequence of Galectin-1 (P09382 whole entry): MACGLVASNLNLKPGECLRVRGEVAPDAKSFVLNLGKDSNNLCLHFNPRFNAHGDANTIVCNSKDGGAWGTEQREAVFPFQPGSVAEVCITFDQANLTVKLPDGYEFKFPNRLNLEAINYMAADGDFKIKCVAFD

Compound | Kd (Galectin-1) | Kd (Galectin-3) | Kd (Galectin-9) | Kd (Galectin-7) | Kd (Galectin-8)
CO[C@@H]1O[C@H](CO)[C@@H](O[C@@H]2O[C@H](CO)[C@H](O)[C@H](NC(=S)NCc3ccccc3)[C@H]2O)[C@H](O)[C@H]1NC(C)=O [N-[(2R,3R,4R,5S,6R)-5-{[(2S,3R,4S,5R,6R)-4-[(benzylcarbamothioyl)amino]-3,5-dihydroxy-6-(hydroxymethyl)oxan-2-yl]oxy}-4-hydroxy-6-(hydroxymethyl)-2-methoxyoxan-3-yl]acetamide] | 35 µM | 15 µM | – | – | –
CO[C@@H]1O[C@H](CO)[C@@H](O[C@@H]2O[C@H](CO)[C@H](O)[C@H](NC(=S)Nc3ccccc3)[C@H]2O)[C@H](O)[C@H]1NC(C)=O [N-[(2R,3R,4R,5S,6R)-5-{[(2S,3R,4S,5R,6R)-3,5-dihydroxy-6-(hydroxymethyl)-4-[(phenylcarbamothioyl)amino]oxan-2-yl]oxy}-4-hydroxy-6-(hydroxymethyl)-2-methoxyoxan-3-yl]acetamide] | 45 µM | 40 µM | 100 µM | 110 µM | > 3000 µM
CCN(CC)C(=S)N[C@H]1[C@@H](O)[C@@H](CO)O[C@@H](O[C@H]2[C@H](O)[C@@H](NC(C)=O)[C@H](OC)O[C@@H]2CO)[C@@H]1O [N-[(2R,3R,4R,5S,6R)-5-{[(2S,3R,4S,5R,6R)-4-[(diethylcarbamothioyl)amino]-3,5-dihydroxy-6-(hydroxymethyl)oxan-2-yl]oxy}-4-hydroxy-6-(hydroxymethyl)-2-methoxyoxan-3-yl]acetamide] | 46 µM | 43 µM | 280 µM | 180 µM | > 3000 µM
CO[C@@H]1O[C@H](CO)[C@@H](O[C@@H]2O[C@H](CO)[C@H](O)[C@H](NC(=S)N[C@H]3[C@@H](O)[C@@H](CO)O[C@@H](O[C@H]4[C@H](O)[C@@H](NC(C)=O)[C@H](OC)O[C@@H]4CO)[C@@H]3O)[C@H]2O)[C@H](O)[C@H]1NC(C)=O [N-[(2R,3R,4R,5S,6R)-5-{[(2S,3R,4S,5R,6R)-4-({[(2S,3R,4S,5R,6R)-2-{[(2R,3S,4R,5R,6R)-5-acetamido-4-hydroxy-2-(hydroxymethyl)-6-methoxyoxan-3-yl]oxy}-3,5-dihydroxy-6-(hydroxymethyl)oxan-4-yl]carbamothioyl}amino)-3,5-dihydroxy-6-(hydroxymethyl)oxan-2-yl]oxy}-4-hydroxy-6-(hydroxymethyl)-2-methoxyoxan-3-yl]acetamide] | 58 µM | 160 µM | 240 µM | 170 µM | > 3000 µM
CO[C@@H]1O[C@H](CO)[C@@H](O[C@@H]2O[C@H](CO)[C@H](O)[C@H](NC(=S)N3CCOCC3)[C@H]2O)[C@H](O)[C@H]1NC(C)=O [N-[(2R,3R,4R,5S,6R)-5-{[(2S,3R,4S,5R,6R)-3,5-dihydroxy-6-(hydroxymethyl)-4-[(morpholin-4-ylmethanethioyl)amino]oxan-2-yl]oxy}-4-hydroxy-6-(hydroxymethyl)-2-methoxyoxan-3-yl]acetamide] | 160 µM | 69 µM | – | – | –
CO[C@@H]1O[C@H](CO)[C@@H](O[C@@H]2O[C@H](CO)[C@H](O)[C@H](NC(N)=S)[C@H]2O)[C@H](O)[C@H]1NC(C)=O [N-[(2R,3R,4R,5S,6R)-5-{[(2S,3R,4S,5R,6R)-4-(carbamothioylamino)-3,5-dihydroxy-6-(hydroxymethyl)oxan-2-yl]oxy}-4-hydroxy-6-(hydroxymethyl)-2-methoxyoxan-3-yl]acetamide] | 43 µM | 65 µM | 76 µM | 170 µM | > 3000 µM
CO[C@@H]1O[C@H](CO)[C@@H](O[C@@H]2O[C@H](CO)[C@H](O)[C@H](NC(=S)NC3CCCCC3)[C@H]2O)[C@H](O)[C@H]1NC(C)=O [N-[(2R,3R,4R,5S,6R)-5-{[(2S,3R,4S,5R,6R)-4-[(cyclohexylcarbamothioyl)amino]-3,5-dihydroxy-6-(hydroxymethyl)oxan-2-yl]oxy}-4-hydroxy-6-(hydroxymethyl)-2-methoxyoxan-3-yl]acetamide] | 40 µM | 57 µM | 80 µM | 24 µM | 650 µM
CO[C@@H]1O[C@H](CO)[C@@H](O[C@@H]2O[C@H](CO)[C@H](O)[C@H](NC(=S)NCc3cccnc3)[C@H]2O)[C@H](O)[C@H]1NC(C)=O [N-[(2R,3R,4R,5S,6R)-5-{[(2S,3R,4S,5R,6R)-3,5-dihydroxy-6-(hydroxymethyl)-4-{[(pyridin-3-ylmethyl)carbamothioyl]amino}oxan-2-yl]oxy}-4-hydroxy-6-(hydroxymethyl)-2-methoxyoxan-3-yl]acetamide] | 43 µM | 35 µM | 47 µM | 23 µM | –
C=CCNC(=S)N[C@H]1[C@@H](O)[C@@H](CO)O[C@@H](O[C@H]2[C@H](O)[C@@H](NC(C)=O)[C@H](OC)O[C@@H]2CO)[C@@H]1O [N-[(2R,3R,4R,5S,6R)-5-{[(2S,3R,4S,5R,6R)-3,5-dihydroxy-6-(hydroxymethyl)-4-[(prop-2-en-1-ylcarbamothioyl)amino]oxan-2-yl]oxy}-4-hydroxy-6-(hydroxymethyl)-2-methoxyoxan-3-yl]acetamide] | 34 µM | 52 µM | 97 µM | 100 µM | > 3000 µM
CO[C@@H]1O[C@H](CO)[C@@H](O[C@@H]2O[C@H](CO)[C@H](O)[C@H](O)[C@H]2O)[C@H](O)[C@H]1NC(C)=O [N-[(2R,3R,4R,5S,6R)-4-hydroxy-6-(hydroxymethyl)-2-methoxy-5-{[(2S,3R,4S,5R,6R)-3,4,5-trihydroxy-6-(hydroxymethyl)oxan-2-yl]oxy}oxan-3-yl]acetamide] | 70 µM | 67 µM | 500 µM | 490 µM | 700 µM
CO[C@@H]1O[C@H](CO)[C@@H](O[C@@H]2O[C@H](CO)[C@H](O)[C@H](NC(=S)NCCCO)[C@H]2O)[C@H](O)[C@H]1NC(C)=O [N-[(2R,3R,4R,5S,6R)-5-{[(2S,3R,4S,5R,6R)-3,5-dihydroxy-6-(hydroxymethyl)-4-{[(3-hydroxypropyl)carbamothioyl]amino}oxan-2-yl]oxy}-4-hydroxy-6-(hydroxymethyl)-2-methoxyoxan-3-yl]acetamide] | 23 µM | 65 µM | 92 µM | 150 µM | > 3000 µM
CNC(=S)N[C@H]1[C@@H](O)[C@@H](CO)O[C@@H](O[C@H]2[C@H](O)[C@@H](NC(C)=O)[C@H](OC)O[C@@H]2CO)[C@@H]1O [N-[(2R,3R,4R,5S,6R)-5-{[(2S,3R,4S,5R,6R)-3,5-dihydroxy-6-(hydroxymethyl)-4-[(methylcarbamothioyl)amino]oxan-2-yl]oxy}-4-hydroxy-6-(hydroxymethyl)-2-methoxyoxan-3-yl]acetamide] | 49 µM | 38 µM | 110 µM | 65 µM | > 3000 µM
CCCCNC(=S)N[C@H]1[C@@H](O)[C@@H](CO)O[C@@H](O[C@H]2[C@H](O)[C@@H](NC(C)=O)[C@H](OC)O[C@@H]2CO)[C@@H]1O [N-[(2R,3R,4R,5S,6R)-5-{[(2S,3R,4S,5R,6R)-4-[(butylcarbamothioyl)amino]-3,5-dihydroxy-6-(hydroxymethyl)oxan-2-yl]oxy}-4-hydroxy-6-(hydroxymethyl)-2-methoxyoxan-3-yl]acetamide] | 23 µM | 23 µM | 69 µM | 130 µM | > 3000 µM
CO[C@@H]1O[C@H](CO)[C@@H](O[C@@H]2O[C@H](CO)[C@H](O)[C@H](NC(=S)NCCO)[C@H]2O)[C@H](O)[C@H]1NC(C)=O [N-[(2R,3R,4R,5S,6R)-5-{[(2S,3R,4S,5R,6R)-3,5-dihydroxy-4-{[(2-hydroxyethyl)carbamothioyl]amino}-6-(hydroxymethyl)oxan-2-yl]oxy}-4-hydroxy-6-(hydroxymethyl)-2-methoxyoxan-3-yl]acetamide] | 49 µM | 74 µM | 120 µM | 130 µM | 500 µM
